{
  "source": "patent US8685949B2",
  "about": "“Use of 25-hydroxy vitamin D3 to improve vitality of animals” (DSM IP Assets B.V., priority 2005, dated 2014)",
  "key": {"[1]": {"tested_on": "replacement gilts (Landrace×Large White) / parity-one sows", "assay": "Reproductive performance of parity-one sows fed 25-hydroxy-vitamin D3 (Experiment 1)", "assay_type": "in vivo, pig", "excerpt": "(§1) In a commercial pig farm a total of 27 six-month-old replacement gilts (Landrace×Large White) were selected. There were two dietary treatments in different stages of the reproductive cycle (replacement gilt development, gestation, lactation). The control diet was the standard farm diet without the supplementation of 25-hydroxy-vitamin D3. The experimental diet was the standard farm diet supplemented with 25-hydroxy-vitamin D3 at 50 mcg per kg diet.\n(§2) Fourteen (14) gilts were randomly selected and assigned to the control group and the other 13 gilts to the ROVIMIX® Hy•D® 1.25% group. Breeding started when the gilts were 7 months old. They were placed in the gestating stalls after breeding and remained there until 14 days before the expected date of farrowing. They were then weighed and moved to the farrowing stalls. Piglets were weaned at 28 days of age.\n(§3) The following data were collected in the farrowing stalls in Experiments 1 and 2: • 1. Litter size at birth • a. Total pigs born • b. Pigs born alive • c. Stillborn pigs • d. Mummified fetuses • 2. Pig weight at birth • 3. Litter size at weaning • 4. Mortality • 5. Pig weight at weaning"}, "[2]": {"tested_on": "replacement gilts (Landrace×Large White) / parity-one sows", "assay": "Reproductive performance of parity-one sows fed 25-hydroxy-vitamin D3 (Experiment 2)", "assay_type": "in vivo, pig", "excerpt": "as §1, with “In another” for “In a”, “of 43” for “of 27”\nas §2, with “Twenty-two (22)” for “Fourteen (14)”, “21” for “13”\nas §3"}, "[3]": {"conditions": "50 mcg per kg diet, 28-day weaning"}},
  "data": [
    {"smiles": "C=C1CC[C@H](O)C/C1=C/C=C1\\CCC[C@]2(C)[C@@H]([C@H](C)CCCC(C)(C)O)CC[C@@H]12", "note": "[25-hydroxy-vitamin D3]", "values": [
      {"measurement": "BWT = Body weight of pigs at birth", "setting": "[1]; 50 mcg per kg diet", "value": 1.45, "unit": "kg"},
      {"measurement": "LSBA = Litter size of number of pigs born alive", "setting": "[1]; 50 mcg per kg diet", "value": 9.77},
      {"measurement": "LSW = Litter size of number of pigs weaned at 28-day weaning", "setting": "[1]; [3]", "value": 9.46},
      {"measurement": "Piglet weight gain at 28-day weaning", "setting": "[1]; birth to 28-day weaning, control 5.33 kg", "value": 5.5, "unit": "kg"},
      {"measurement": "Weaning weights compared with control", "setting": "[1]; result in words", "value": "not different from each other"},
      {"measurement": "LSBT = Litter size of total number of pigs at birth", "setting": "[1]; standard farm diet supplemented with 25-hydroxy-vitamin D3 at 50 mcg per kg diet, gilt development, gestation, lactation", "value": 10.46},
      {"measurement": "Difference in litter size at weaning vs. control", "setting": "[1]; treated minus control", "value": "+1.82"},
      {"measurement": "Difference in pigs born alive vs. control", "setting": "[1]; treated minus control", "value": "+1.84"},
      {"measurement": "Difference in total pigs born vs. control", "setting": "[1]; treated minus control", "value": "+1.46"},
      {"measurement": "LSBA = Litter size of number of pigs born alive", "setting": "[2]; 50 mcg per kg diet", "value": 9.62},
      {"measurement": "LSW = Litter size of number of pigs weaned at 28-day weaning", "setting": "[2]; [3]", "value": 8.48},
      {"measurement": "Difference in litter size at weaning vs. control", "setting": "[2]; treated minus control", "value": "+0.66"},
      {"measurement": "Difference in pigs born alive vs. control", "setting": "[2]; treated minus control", "value": "+0.44"}
    ]}
  ]
}
